As usually defined, the ED50 is the midpoint of the dose-response relation. The low end stands for an effect at a small dose, the high end for a need for a large dose.

We go through four compounds from ChEMBL document CHEMBL1649228, “In vivo antibacterial activity of vertilmicin, a new aminoglycoside antibiotic” (2009).

≈ marks a conversion by molar mass, not a printed value.

Assay [1] deals with Staphylococcus aureus. Put plainly: Antimicrobial activity against methicillin-susceptible Staphylococcus aureus 15 using 2.5 X 10^5 CFU inoculum by agar dilution method. The assay is classed as functional.
Assay [2] has as its system Escherichia coli. Put plainly: Antimicrobial activity against Escherichia coli 9612 infected in CD-1 ICR mouse using 3.7 X 10^4 CFU inoculum. Type of assay: functional.
For assay [3], the system named is Klebsiella pneumoniae. Nature of the assay: Antimicrobial activity against Klebsiella pneumoniae 935 infected in CD-1 ICR mouse using 3 X 10^5 CFU inoculum. Type of assay: functional.
Assay [4] concerns Klebsiella pneumoniae. Nature of the assay: microbe, parasite or virus in culture. The following applies: 935.
Description: Antimicrobial activity against Klebsiella pneumoniae 935 using 3 X 10^5 CFU inoculum by agar dilution method
The test system of assay [5] is Enterococcus faecalis. Nature of the assay: Antimicrobial activity against Enterococcus faecalis ATCC 29212 infected in CD-1 ICR mouse using 2.8 X 10^7 inoculum. The assay is classed as functional.
Assay [6] concerns Enterococcus faecalis. Nature of the assay: Antimicrobial activity against Enterococcus faecalis HH22 infected in CD-1 ICR mouse using 1.8 X 10^8 inoculum. The assay is classed as functional.
Assay [7] relates to Staphylococcus aureus. Put plainly: Antimicrobial activity against methicillin-susceptible Staphylococcus aureus ATCC 29213 infected in CD-1 ICR mouse using 1.5 X 10^5 CFU inoculum. Type of assay: functional.
For assay [8], the system named is Enterococcus faecalis. Put plainly: Antimicrobial activity against Enterococcus faecalis ATCC 29212 using 2.8 X 10^7 by agar dilution method. The assay is classed as functional.
For assay [9], the system named is Staphylococcus aureus. Nature of the assay: Antimicrobial activity against methicillin-resistant Staphylococcus aureus 9344 infected in CD-1 ICR mouse using 2.5 X 10^5 CFU inoculum. The assay is classed as functional.
The subject of assay [10] is Escherichia coli. Put plainly: Antimicrobial activity against Escherichia coli 9612 using 3.7 X 10^4 CFU inoculum by agar dilution method. Type of assay: functional.
For assay [11], the system named is Staphylococcus aureus. Nature of the assay: Antimicrobial activity against methicillin-susceptible Staphylococcus aureus ATCC 29213 using 1.5 X 10^5 CFU inoculum by agar dilution method. The assay is classed as functional. Background: In agar dilution, organisms are placed on agar that contains the substance at set levels.
Assay [12] concerns Klebsiella pneumoniae. Put plainly: Antimicrobial activity against Klebsiella pneumoniae 967 infected in CD-1 ICR mouse using 2.6 X 10^5 CFU inoculum. Type of assay: functional.
Assay [13] has as its system Staphylococcus aureus. Put plainly: Antimicrobial activity against methicillin-resistant Staphylococcus aureus 9344 using 2.5 X 10^5 CFU inoculum by agar dilution method. The assay is classed as functional.
Assay [14] relates to Escherichia coli. Put plainly: Antimicrobial activity against Escherichia coli ATCC 25922 infected in CD-1 ICR mouse using 1 X 10^5 CFU inoculum. Type of assay: functional.
Assay [15] concerns Escherichia coli. Nature of the assay: Antimicrobial activity against Escherichia coli 1515 infected in CD-1 ICR mouse using 2.4 X 10^6 CFU inoculum. Type of assay: functional.
In assay [16] the test system is Escherichia coli. Nature of the assay: microbe, parasite or virus in culture. The following applies: 1515.
Description: Antimicrobial activity against Escherichia coli 1515 using 2.4 X 10^6 CFU inoculum by agar dilution method
Assay [17] relates to Enterococcus faecalis. Nature of the assay: Antimicrobial activity against Enterococcus faecalis HH22 using 1.8 X 10^8 by agar dilution method. The assay is classed as functional.
For assay [18], the system named is Escherichia coli. Nature of the assay: microbe, parasite or virus in culture. Particulars: ATCC 25922.
Description: Antimicrobial activity against Escherichia coli ATCC 25922 using 1 X 10^5 CFU inoculum by agar dilution method
In assay [19] the test system is Klebsiella pneumoniae. Put plainly: microbe, parasite or virus in culture. The following applies: 967.
Description: Antimicrobial activity against Klebsiella pneumoniae 967 using 2.6 X 10^5 CFU inoculum by agar dilution method
For assay [20], the system named is Staphylococcus aureus. Put plainly: Antimicrobial activity against methicillin-susceptible Staphylococcus aureus 15 infected in CD-1 ICR mouse using 2.5 X 10^5 CFU inoculum. The assay is classed as functional.
The test system of assay [21] is Escherichia coli. Put plainly: Antimicrobial activity against Escherichia coli 9612 infected in CD-1 ICR mouse assessed as decrease in bacterial load in kidney at 7.2 mg/kg, sc after 72 hrs (reference value: 4.45 +/- 0.37 log10CFU/g). The assay is classed as functional. Particulars: route subcutaneous.
The subject of assay [22] is Escherichia coli. Put plainly: Antimicrobial activity against Escherichia coli 9612 infected in CD-1 ICR mouse assessed as decrease in bacterial load in kidney at 20 mg/kg, sc after 72 hrs (reference value: 4.45 +/- 0.37 log10CFU/g). The following applies: route subcutaneous. Type of assay: functional.
Assay [23] deals with Escherichia coli. Nature of the assay: Antimicrobial activity against Escherichia coli 9612 infected in new Zealand white rabbit with skin burn injury assessed as decrease in bacterial load in burn wound at 0.5 mg/ml after 24 hrs (reference value: 8.57 +/- 0.35 log10CFU/g). The assay is classed as functional.
For assay [24], the system named is Escherichia coli. Put plainly: Antimicrobial activity against Escherichia coli 9612 infected in CD-1 ICR mouse assessed as decrease in bacterial load in kidney at 2.59 mg/kg, sc after 72 hrs (reference value: 4.45 +/- 0.37 log10CFU/g). The following applies: route subcutaneous. The assay is classed as functional.
Assay [25] has as its system Escherichia coli. Nature of the assay: Antimicrobial activity against Escherichia coli 9612 infected in CD-1 ICR mouse assessed as decrease in bacterial load in kidney at 12 mg/kg, sc after 72 hrs (reference value: 4.45 +/- 0.37 log10CFU/g). Type of assay: functional. The following applies: route subcutaneous.
In assay [26] the test system is Escherichia coli. Put plainly: Antimicrobial activity against Escherichia coli 9612 infected in new Zealand white rabbit with skin burn injury assessed as decrease in bacterial load in burn wound at 2 mg/ml after 24 hrs (reference value: 8.57 +/- 0.35 log10CFU/g). Type of assay: functional.
For assay [27], the system named is Escherichia coli. Nature of the assay: Antimicrobial activity against Escherichia coli 9612 infected in CD-1 ICR mouse assessed as decrease in bacterial load in kidney at 4.32 mg/kg, sc after 72 hrs (reference value: 4.45 +/- 0.37 log10CFU/g). Particulars: route subcutaneous. The assay is classed as functional.

On to `CCN[C@@H]1C[C@H](N)[C@@H](O[C@H]2OC(CN)=CC[C@H]2N)[C@H](O)[C@H]1O[C@H]1OC[C@](C)(O)[C@H](NC)[C@H]1O` [NETILMICIN], for which the MIC was determined as 0.125 µg/mL (≈ 0.263 µM) in assay [1]; 0.5 µg/mL (≈ 1.05 µM) in [4]; 8 µg/mL (≈ 16.8 µM) in assay [8]; 0.5 µg/mL (≈ 1.05 µM) in [10]; 0.125 µg/mL (≈ 0.263 µM) in [11]; 0.25 µg/mL (≈ 0.526 µM) in assay [13]. For the same compound, the MIC in [16] turned out to be 0.5 µg/mL (≈ 1.05 µM); in assay [17], 8 µg/mL (≈ 16.8 µM); in [18] it was 0.5 µg/mL (≈ 1.05 µM); in assay [19], 0.5 µg/mL (≈ 1.05 µM). For the same compound, the ED50 in assay [2] worked out at 0.63 mg/kg; in assay [3] it was 0.33 mg/kg; in assay [5], 3.44 mg/kg; in [6], 6.56 mg/kg; in assay [7] it was 0.26 mg/kg; in assay [9], 0.88 mg/kg. Also, the 50% effective dose (ED50) in [12] amounted to 0.17 mg/kg; in [14], 0.77 mg/kg; in assay [15], 0.46 mg/kg; in [20] it was 0.49 mg/kg.

For the compound `CN[C@@H]1[C@@H](O)[C@@H](O[C@@H]2[C@@H](O)[C@H](O[C@@H]3OC(C(C)N)=CC[C@@H]3N)[C@@H](N)C[C@H]2N)OC[C@]1(C)O` (stereo partly drawn) [VERDAMICIN], the MIC in [1] was determined as 0.125 µg/mL (≈ 0.271 µM); in assay [4], 0.5 µg/mL (≈ 1.08 µM); in assay [8], 8 µg/mL (≈ 17.3 µM); in [10] it was 4 µg/mL (≈ 8.67 µM); in assay [11] it was 0.125 µg/mL (≈ 0.271 µM); in assay [13] it was 0.25 µg/mL (≈ 0.542 µM). For the same compound, the MIC is 0.5 µg/mL (≈ 1.08 µM) in [16], more than 128 µg/mL in assay [17], 0.5 µg/mL (≈ 1.08 µM) in [18] and 0.25 µg/mL (≈ 0.542 µM) in [19]. Besides, the median effective dose (ED50) in [2] is 2.66 mg/kg; in [3], 0.29 mg/kg; in assay [5] it was 5.24 mg/kg; in [6], more than 100 mg/kg; in [7], 0.23 mg/kg; in assay [9], 1.33 mg/kg. Moreover, the ED50 in assay [12] stood at 0.16 mg/kg; in assay [14], 1.09 mg/kg; in assay [15], 0.49 mg/kg; in [20] it was 0.66 mg/kg.

For `CCN[C@@H]1C[C@H](N)[C@@H](O[C@@H]2OC(C(C)N)=CC[C@@H]2N)[C@H](O)[C@H]1O[C@H]1OC[C@](C)(O)[C@H](NC)[C@H]1O` (stereo partly drawn) [VERTILMICIN], the MIC in assay [1] was found to be 0.125 µg/mL (≈ 0.255 µM); in assay [4], 0.5 µg/mL (≈ 1.02 µM); in assay [8], 8 µg/mL (≈ 16.3 µM); in assay [10], 0.5 µg/mL (≈ 1.02 µM); in assay [11], 0.125 µg/mL (≈ 0.255 µM); in assay [13], 0.25 µg/mL (≈ 0.511 µM). Also, the MIC in assay [16] amounted to 0.5 µg/mL (≈ 1.02 µM); in assay [17] it was 8 µg/mL (≈ 16.3 µM); in [18], 0.5 µg/mL (≈ 1.02 µM); in assay [19] it was 0.25 µg/mL (≈ 0.511 µM). For the same compound, the ED50 in assay [2] came out at 0.67 mg/kg; in [3], 0.29 mg/kg; in [5], 4.35 mg/kg; in assay [6], 7.11 mg/kg; in assay [7], 0.25 mg/kg; in assay [9] it was 0.99 mg/kg. The ED50 came to 0.18 mg/kg in assay [12], 0.82 mg/kg in [14], 0.63 mg/kg in [15] and 0.7 mg/kg in [20]. The log10CFU/g came to 3.07 in assay [21]; 2.36 in [22]; 6.33 in assay [23]; 3.32 in [24]; 3.11 in assay [25]; 5 in assay [26]. Moreover, the log10CFU/g in assay [27] was 3.22.

Turning to GENTAMICIN, the MIC is 0.125 µg/mL in assay [1]; 8 µg/mL in [8]; 8 µg/mL in assay [10]; 0.125 µg/mL in assay [11]; 0.25 µg/mL in assay [13]; more than 128 µg/mL in assay [17]. Besides, the ED50 in [2] was 7.88 mg/kg; in [3], 0.68 mg/kg; in assay [5], 17.5 mg/kg; in assay [6], more than 100 mg/kg; in assay [7], 0.6 mg/kg; in [9], 2.84 mg/kg. Besides, the ED50 is 0.32 mg/kg in assay [12], 1.5 mg/kg in assay [14], 1.11 mg/kg in [15] and 0.61 mg/kg in [20].
